Assay results taken from patent US20260356803A1, “Nicotinamide derivatives” (Board of Regents, The University of Texas System, priority 2024, published 2026).
Read-outs that look alike come from different tables or passages of the source.

Columns and labels:
[1] = tested on: human MPNST cell line S462; assay: S462 cell viability (CellTiter-Glo, 72 h); format: cell-based; conditions: for toxicity to S462 / rescue by nicotinamide: 10% FBS Nam-free DMEM; for rescue by nicotinamide: comparison of vacor, 3-AP, tiazofurin and 9
Description: This similarity, in addition to the scaffold's particular sensitivity to modifications around the pyridinyl ring led us to hypothesize that the activity of compounds 1 and 9 may depend on the concentration of Nam in the media. To test this hypothesis, we analyzed the activity of both compounds in media supplemented with increasing concentrations of Nam. […] Given that Nam inhibited compound activity, we considered Nam concentrations in basal culture conditions (DMEM supplemented with 10% fetal bovine serum or FBS) as compared to physiological levels. Nam levels in human serum are estimated to be in the 4 μM range.^5 In contrast, DMEM alone contains […] of Nam and the concentration in 10% FBS is expected to range between 0.574-1.56 μM.^6 To more closely reflect physiologic levels of Nam, we evaluated the activity of these compounds in cells grown in DMEM lacking Nam (Nam-free DMEM), so that the only exogenous Nam derives from 10% FBS. […] These observations indicate that the potency of these compounds is in the nanomolar range when tested in the presence of physiological levels of Nam.
We thus re-assessed the structure activity relationship of compound 21 analogs in Nam-free DMEM supplemented with or without 100 μM Nam (see appendix below: Synthesis, characterization and activity of micromolar and nanomolar active nicotinamide derivatives). […] Particularly notable, even in Nam-depleted conditions, all active analogs retained the same 3-pyridinyl ring as Nam, reinforcing the relationship between structural resemblance to Nam and compound efficacy.
In 96-well assay plates (Corning #2903), 2,000 cells were plated per well in 100 μL of medium and allowed to adhere overnight. The next day, compounds or Nam suspended in DMSO were dispensed to the assayed wells using a D300e Digital Dispenser (Tecan). All wells were normalized to 0.5% DMSO. 72 hours after incubation at 37 °C in 5% CO2, cell viability was assayed using an ATP-based luminescent viability assay, CellTiter-Glo (Promega #G8462). CellTiter-Glo substrate was mixed 1:1 with phosphate-buffered saline (PBS) supplemented with 1% Triton X-100, and 40 μL of this mixture was added to the assay wells. After the plates were shaken on a microplate shaker for 10 minutes at room temperature, luminescence was recorded using a Synergy 2 Microplate Reader or Cytation 5 plate reader (BioTek). In Prism 9 software (GraphPad), ten-point dose response curves were plotted with baseline-correction to the vehicle control well, and IC50 values were calculated by curve fitting using asymmetric (five parameter), least squares fit.

SARM1 = assay: Cytotoxicity in SARM1-knockout versus wild type cells; format: cell-based; conditions: SARM1-knockout vs wild type
Description: (§1) Given that vacor, 3-AP, and compound 21 are all metabolized to toxic, NAD-like derivatives through NAMPT and NMNAT, we hypothesized that their anti-cancer activity may also depend on SARM1. To test this, we compared the toxic effects of vacor, 3-AP, and 9 in either wild type cells or cells in which we used CRISPR to silence SARM1. […] These observations highlight that even though these different scaffolds are toxified through the same mechanism, the resulting metabolites may have different activities. We next co-titrated guanosine, which is known to rescue tiazofurin by bypassing IMPDH in guanylate synthesis, with each of the above small molecules. […] To test this hypothesis, we set up in vitro reactions with different combinations of 9, NAMPT and NMNAT. After incubation, metabolites were extracted, reconstituted in aqueous solution and then co-incubated with an established IMPDH2 enzyme assay.

IMPDH = assay: Guanosine co-titration rescue; format: cell-based; conditions: guanosine co-titrated
Description: as §1

[2] = tested on: NMNAT1 or alcohol dehydrogenase; assay: Counter screen with NMN in place of NAM; format: biochemical; conditions: role: inhibitor; 50 μM NMN substituted for NAM
Description: NAMPT activity was measured using a coupled-enzyme assay previously described [Revollo, 2014]. Briefly, reactions consisting of 50 mM Tris pH 8, 0.4 mM PRPP, 2.5 mM ATP, 12 mM MgCl2, 0.02% BSA, 1 μM NAMPT, 77 nM NMNAT1, 10 mM semicarbazide, 30 μg/ml alcohol dehydrogenase were set up in a 384-well plate (50 μl/well). […] The reactions were started by addition of 50 μM NAM. Fluorescence due to NADH formation by alcohol dehydrogenase was measured in a BioTek Cytation 5 plate reader (Agilent, USA) set up for excitation at λ=340 nm and detection of emission at λ=460 nm. To counter screen for NMNAT1 or alcohol dehydrogenase inhibition, the assay was set up above but substituting 50 μM NMN (substrate for NMNAT1) for NAM. No inhibition of was observed under these conditions.

iHCT116 cells = assay: Forward genetics resistance selection (IAA-inducible mutagenesis); format: cell-based
Description: Second, we screened for resistance to 9 in iHCT116 cells, a system that uses inducible mutagenesis and forward genetics to find compound-resistant mutations and thus can reveal both loss of function and gain of function alleles that suppress activity. The iHCT116 system is a barcoded cell line in which we temporally control mutagenesis by the addition of indole acetic acid (IAA) mediated degradation of the mismatch repair protein MLH1.^12 MLN4924 is a small molecule toxin that we use as a positive control to verify that IAA treatment leads to increased mutations. By degrading MLH1 and increasing the overall mutation rate, IAA treatment increases the frequency of UBA3 mutations, leading to a higher rate of MLN4924 resistance. […] Having previously established a relationship between either NMNAT1 levels or NAMPT activity and compound resistance, we analyzed the levels of both enzymes in multiple resistant clones that harbored unique barcode sequences. […] To test whether reduced NMNAT1 levels in these clones contributed to resistance, we ectopically expressed NMNAT1 in either the parental cells or a representative resistant clone with low NMNAT1 expression.

[3] = [nicotinamide] 0 μM, Nam-free DMEM, read-out: IC50 (μM), [nicotinamide] 0 μM
[4] = [nicotinamide] 33 μM, read-out: IC50 (μM), [nicotinamide] 33 μM
[5] = [nicotinamide] 100 μM, read-out: IC50 (μM), [nicotinamide] 100 μM
[6] = S462, commercial DMEM, highest dose tested 50 μM, read-out: IC50

O=C(Nc1ccon1)c1cccnc1
IC50 [1, 3]: 2.73 µM
IC50 [1, 4]: > 50 µM
IC50 [1, 5]: > 50 µM

O=C(Nc1cccnc1)c1ccc(Cl)cc1
IC50 [1, 3]: 0.921 µM
IC50 [1, 4]: > 50 µM
IC50 [1, 5]: > 50 µM

O=C(Nc1cncc(F)c1)c1cccs1
IC50 [1, 4]: > 50 µM
IC50 [1, 5]: > 50 µM

O=C(Nc1nc2ccccc2s1)c1cccnc1 [drawing 105]
IC50 [1, 3]: 0.623 µM
IC50 [1, 5]: > 50 µM

CC(=O)c1cccnc1 [Compound 3-AP, 3-acetylpyridine, reference compound]
toxicity to S462 [1]: toxic to S462
rescue by nicotinamide [1]: rescued by nicotinamide
sensitivity of SARM1-knockout cells (SARM1): equally sensitive
guanosine rescue of toxicity (IMPDH): no rescue

O=C(Nc1ccc(Br)nc1)c1cccs1
IC50 [1, 3]: 8.5 µM
IC50 [1, 4]: > 50 µM
IC50 [1, 5]: > 50 µM

O=C(Nc1cccnc1)c1ccco1
IC50 [1, 3]: 0.022 µM
IC50 [1, 4]: > 50 µM
IC50 [1, 5]: > 50 µM

O=C(Nc1cccnc1)c1ccc[nH]1
IC50 [1, 3]: 0.08 µM
IC50 [1, 4]: > 50 µM
IC50 [1, 5]: > 50 µM

O=C(Nc1cccnc1)c1ccccn1
IC50 [1, 3]: 0.992 µM
IC50 [1, 4]: > 50 µM
IC50 [1, 5]: > 50 µM

N#Cc1c(NC(=O)c2cccnc2)sc2c1CCCC2
IC50 [1, 3]: 4.74 µM
IC50 [1, 5]: 4.72 µM

Cc1cccc(C(=O)Nc2cccnc2)c1
IC50 [1, 3]: 35.7 µM
IC50 [1, 4]: > 50 µM
IC50 [1, 5]: > 50 µM

O=C(Nc1cccnc1)c1ccccc1
IC50 [1, 3]: 0.064 µM
IC50 [1, 4]: 16.8 µM
IC50 [1, 5]: > 50 µM

O=C(Nc1cccnc1)c1ncco1
IC50 [1, 3]: 19.5 µM
IC50 [1, 4]: > 50 µM
IC50 [1, 5]: > 50 µM

COc1cccc(C(=O)Nc2cccnc2)c1
IC50 [1, 3]: 2.36 µM
IC50 [1, 4]: > 50 µM
IC50 [1, 5]: > 50 µM

O=C(Nc1nc2ccccc2s1)c1cccnc1 [drawing 111]
IC50 [1, 3]: 36.2 µM
IC50 [1, 4]: > 50 µM
IC50 [1, 5]: > 50 µM

Cc1ccsc1C(=O)Nc1cccnc1
IC50 [1, 3]: 1.08 µM
IC50 [1, 4]: > 50 µM
IC50 [1, 5]: > 50 µM

O=C(Nc1cccnc1)c1cccnn1
IC50 [1, 3]: 18 µM
IC50 [1, 4]: > 50 µM
IC50 [1, 5]: > 50 µM

Cc1ncsc1C(=O)Nc1cccnc1
IC50 [1, 4]: > 50 µM
IC50 [1, 5]: > 50 µM

Cc1ccc(C(=O)Nc2cccnc2)s1
IC50 [1, 3]: 0.184 µM
IC50 [1, 4]: > 50 µM
IC50 [1, 5]: > 50 µM

O=C(Nc1nc2cccnc2s1)c1cccnc1
IC50 [1, 3]: 23.9 µM
IC50 [1, 4]: > 50 µM
IC50 [1, 5]: > 50 µM

O=C(/C=C/c1cccnc1)NCCCCC1CCN(C(=O)c2ccccc2)CC1 [FK866, reference compound]
inhibition in counter screen [2]: No inhibition

CCOC(=O)c1ccc(NC(=O)c2cccnc2)s1
IC50 [1, 3]: 0.23 µM
IC50 [1, 5]: > 50 µM

N#Cc1ccc(NC(=O)c2cccs2)cn1
IC50 [1, 3]: 2.78 µM
IC50 [1, 4]: > 50 µM
IC50 [1, 5]: > 50 µM

O=C(Nc1cccnc1)c1ccc(Br)s1
IC50 [1, 3]: 0.234 µM
IC50 [1, 4]: 15.6 µM
IC50 [1, 5]: > 50 µM

O=C(Nc1cccnc1)c1cc2ccccc2s1
IC50 [1, 3]: 0.249 µM
IC50 [1, 4]: 21.4 µM
IC50 [1, 5]: > 50 µM

O=C(Nc1ccccn1)c1cccs1 [Compound 3, N-(Pyridin-2-yl)thiophene-2-carboxamide]
IC50 [1, 6]: > 50 µM

O=C(Nc1cnc(Cl)c(Cl)c1)c1cccs1
IC50 [1, 3]: 8.76 µM
IC50 [1, 4]: > 50 µM
IC50 [1, 5]: 42.4 µM

O=C(Nc1ccccc1)c1cccs1 [Compound 2, N-Phenylthiophene-2-carboxamide]
IC50 [1, 6]: > 50 µM

NS(=O)(=O)OC[C@@H]1C[C@@H](n2ccc3c(N[C@H]4CCc5ccccc54)ncnc32)C[C@@H]1O [MLN4924, reference compound]
resistant clones (iHCT116 cells; IAA treated (Mut-on)): 33 clones
resistant clones (iHCT116 cells; vehicle (Mut-off)): one

O=C(Nc1cccs1)c1cccnc1 [drawing 72]
IC50 [1, 3]: 0.006 µM
IC50 [1, 4]: 1.2 µM
IC50 [1, 5]: > 50 µM

O=C(NCc1cccnc1)Nc1ccc([N+](=O)[O-])cc1 [vacor, reference compound]
toxicity to S462 [1]: toxic to S462
rescue by nicotinamide [1]: rescued by nicotinamide
resistance of SARM1-knockout cells (SARM1): 3 fold
guanosine rescue of toxicity (IMPDH): no rescue

Cc1csc(C(=O)Nc2cccnc2)c1
IC50 [1, 3]: 0.302 µM
IC50 [1, 4]: > 50 µM
IC50 [1, 5]: > 50 µM

O=C(Nc1cccnc1)c1ccoc1
IC50 [1, 3]: 0.948 µM
IC50 [1, 4]: > 50 µM
IC50 [1, 5]: > 50 µM

O=C(Nc1cccnc1)c1ccc(C(F)(F)F)cc1
IC50 [1, 3]: 0.771 µM
IC50 [1, 4]: > 50 µM
IC50 [1, 5]: > 50 µM

COc1ccc(C(=O)Nc2cccnc2)cc1
IC50 [1, 3]: 0.686 µM
IC50 [1, 4]: > 50 µM
IC50 [1, 5]: > 50 µM

NC(=O)c1csc([C@@H]2O[C@H](CO)[C@@H](O)[C@H]2O)n1 [tiazofurin, reference compound]
toxicity to S462 [1]: toxic to S462
rescue by nicotinamide [1]: all compounds except tiazofurin were rescued by nicotinamide
guanosine rescue of toxicity (IMPDH): guanosine rescue

CCOC(=O)c1ccsc1NC(=O)c1cccnc1
IC50 [1, 4]: > 50 µM
IC50 [1, 5]: > 50 µM

O=C(Nc1cccnc1)c1cc2c(s1)CCCC2
IC50 [1, 3]: 0.763 µM
IC50 [1, 4]: > 50 µM
IC50 [1, 5]: > 50 µM

Cc1ccccc1C(=O)Nc1cccnc1
IC50 [1, 3]: 14.7 µM
IC50 [1, 4]: > 50 µM
IC50 [1, 5]: > 50 µM

O=C(Nc1cccnc1)c1nccs1
IC50 [1, 3]: 1.88 µM
IC50 [1, 4]: > 50 µM
IC50 [1, 5]: > 50 µM

N#Cc1c(NC(=O)c2cccnc2)sc2c1CCC2
IC50 [1, 3]: 5.97 µM
IC50 [1, 5]: 6.1 µM

O=C(Nc1cccnc1)c1ncc[nH]1
IC50 [1, 3]: 22.4 µM
IC50 [1, 4]: > 50 µM
IC50 [1, 5]: > 50 µM

Cc1sc(NC(=O)c2cccnc2)c(C#N)c1C
IC50 [1, 5]: > 50 µM

Cc1cc(C#N)c(NC(=O)c2cccnc2)s1
IC50 [1, 5]: > 50 µM

N#Cc1ccc(C(=O)Nc2cccnc2)s1
IC50 [1, 3]: 0.075 µM
IC50 [1, 4]: 14.2 µM
IC50 [1, 5]: > 50 µM

O=C(Nc1cc(-c2ccccc2)cs1)c1cccnc1
IC50 [1, 3]: 2.46 µM
IC50 [1, 5]: 39.6 µM

N#Cc1cncc(NC(=O)c2cccs2)c1
IC50 [1, 4]: > 50 µM
IC50 [1, 5]: > 50 µM

O=C(Nc1ccncc1)c1cccs1 [Compound 4, N-(Pyridin-4-yl)thiophene-2-carboxamide]
IC50 [1, 6]: > 50 µM

O=C(Nc1ccccc1)c1cccnc1
IC50 [1, 3]: 0.024 µM
IC50 [1, 4]: 13.1 µM
IC50 [1, 5]: > 50 µM
